One experiment concerns the target T1, human Nav1.7 (Homo sapiens, UniProt Q15858).
T1 construct: expressed in transfected cells
As to the kind of experiment: PatchXpress sodium current measurement, inactivated state block, Nav1.7. Conditions: channels stably expressed in HEK 293 cells, double-pulse protocol, 22° C. The format is cell-based. How it is done:
(§1) Cell Based Assays for Nav 1.7 and Nav 1.5 Activity
(§2) Compounds were tested on human Nav1.7 and Nav1.5 channels stably expressed in HEK 293 cells.
(§3) Sodium Current Measurements on the PatchXpress 7000:
(§4) To measure inactivated state block of sodium channels, test compounds were characterized in an automated PatchXpress® assay (Molecular Devices) using a double-pulse protocol on human Nav1.7 and Nav1.5 channels stably expressed in HEK 293 cells. Cells were held at a potential 20 mV negative to the potential at which ˜50% of the channels are inactivated. A 8000 ms pre-pulse 7 mV positive to the potential at which ˜50% of the channels are inactivated was given followed by a hyperpolarizing 2 ms pulse to −120 mV and a 20 ms test pulse to −20 mV. The protocol was applied to cells in the absence, presence of compound and after washout. The temperature of PatchXpress® instruments was maintained at 22° C. The following recording solutions were used. Internal solution (mM): 30 CsCl, 5 HEPES, 10 EGTA, 120 CsF, 5 NaF, 2 MgCl2, pH 7.3 with CsOH. External solution (mM): 120 NMDG, 40 NaCl, 1 KCl, 0.5 MgCl2, 5 HEPES, 2.7 CaCl2, pH 7.5 with NMDG-OH. Estimated IC50 values were calculated based on at least two compound concentrations tested. For all electrophysiology experiments, offline analysis was used to correct for current rundown and to determine percent inhibition as a function of drug concentration. IC50 values were determined by fitting to the Hill equation.

A further experiment deals with T2, human Nav1.5 (Homo sapiens, UniProt Q14524).
T2 construct: expressed in transfected cells
T2 sequence (Q14524 whole entry): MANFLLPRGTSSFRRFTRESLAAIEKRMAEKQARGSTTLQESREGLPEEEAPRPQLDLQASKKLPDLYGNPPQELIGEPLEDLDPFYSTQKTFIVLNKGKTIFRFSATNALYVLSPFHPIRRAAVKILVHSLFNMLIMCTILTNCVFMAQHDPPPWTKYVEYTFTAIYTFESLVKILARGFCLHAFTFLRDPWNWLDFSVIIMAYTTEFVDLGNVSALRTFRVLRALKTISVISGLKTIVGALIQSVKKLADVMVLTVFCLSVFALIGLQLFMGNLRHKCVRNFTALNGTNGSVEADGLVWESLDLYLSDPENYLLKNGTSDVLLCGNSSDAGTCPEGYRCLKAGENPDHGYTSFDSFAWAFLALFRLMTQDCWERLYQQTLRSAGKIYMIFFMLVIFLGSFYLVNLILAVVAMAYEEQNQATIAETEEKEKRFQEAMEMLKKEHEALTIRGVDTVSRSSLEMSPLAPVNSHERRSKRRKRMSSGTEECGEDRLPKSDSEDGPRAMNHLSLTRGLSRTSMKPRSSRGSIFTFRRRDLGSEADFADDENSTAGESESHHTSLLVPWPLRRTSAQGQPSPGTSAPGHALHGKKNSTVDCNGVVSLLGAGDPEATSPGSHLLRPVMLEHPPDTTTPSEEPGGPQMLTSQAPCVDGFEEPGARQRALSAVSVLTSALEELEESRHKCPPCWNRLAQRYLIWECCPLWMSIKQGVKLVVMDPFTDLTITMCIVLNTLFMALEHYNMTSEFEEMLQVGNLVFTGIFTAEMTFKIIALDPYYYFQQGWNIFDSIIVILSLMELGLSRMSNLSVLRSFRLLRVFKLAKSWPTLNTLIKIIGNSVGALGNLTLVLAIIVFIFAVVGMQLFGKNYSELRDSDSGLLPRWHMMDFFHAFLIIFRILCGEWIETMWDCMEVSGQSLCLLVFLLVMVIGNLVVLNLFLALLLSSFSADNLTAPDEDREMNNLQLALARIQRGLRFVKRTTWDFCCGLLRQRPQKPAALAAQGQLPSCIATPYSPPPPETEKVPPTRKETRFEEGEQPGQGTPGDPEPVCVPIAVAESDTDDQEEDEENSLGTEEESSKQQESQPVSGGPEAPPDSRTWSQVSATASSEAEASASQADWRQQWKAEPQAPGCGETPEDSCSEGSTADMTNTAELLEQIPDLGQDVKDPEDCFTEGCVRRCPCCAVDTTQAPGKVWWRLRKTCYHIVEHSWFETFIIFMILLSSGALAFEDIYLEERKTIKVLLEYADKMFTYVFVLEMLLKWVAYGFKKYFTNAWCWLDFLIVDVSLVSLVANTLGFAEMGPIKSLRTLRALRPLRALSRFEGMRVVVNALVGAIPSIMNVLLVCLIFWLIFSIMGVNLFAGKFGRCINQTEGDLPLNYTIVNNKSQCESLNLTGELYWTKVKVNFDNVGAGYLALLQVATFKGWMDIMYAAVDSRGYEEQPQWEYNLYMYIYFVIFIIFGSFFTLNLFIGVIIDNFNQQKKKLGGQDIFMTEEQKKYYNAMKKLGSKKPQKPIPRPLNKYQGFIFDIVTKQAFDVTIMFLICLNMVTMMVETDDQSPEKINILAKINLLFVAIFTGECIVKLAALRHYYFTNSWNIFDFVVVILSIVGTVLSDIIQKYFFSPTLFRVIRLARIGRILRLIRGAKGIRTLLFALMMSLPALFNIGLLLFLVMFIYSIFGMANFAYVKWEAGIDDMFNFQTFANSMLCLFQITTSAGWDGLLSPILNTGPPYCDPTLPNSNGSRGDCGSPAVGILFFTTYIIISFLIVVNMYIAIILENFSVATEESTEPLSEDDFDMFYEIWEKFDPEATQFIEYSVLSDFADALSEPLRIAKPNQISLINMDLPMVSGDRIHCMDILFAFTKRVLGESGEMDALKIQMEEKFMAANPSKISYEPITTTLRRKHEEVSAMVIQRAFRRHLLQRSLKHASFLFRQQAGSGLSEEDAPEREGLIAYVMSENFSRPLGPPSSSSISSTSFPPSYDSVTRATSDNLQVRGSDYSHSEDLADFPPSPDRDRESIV
Briefly: PatchXpress sodium current measurement, inactivated state block, Nav1.5. The experiment is classed as cell-based. As to conditions: determined by PatchXpress measurement, HEK 293 cells. The procedure: as §1, §2, §3, §4

The mark [1] stands for this setting: read-out: potency for the Nav 1.7 sodium ion channel (1.7=).

Where two headings read alike, the source gives them in different places.

T1 sequence (Q15858 whole entry): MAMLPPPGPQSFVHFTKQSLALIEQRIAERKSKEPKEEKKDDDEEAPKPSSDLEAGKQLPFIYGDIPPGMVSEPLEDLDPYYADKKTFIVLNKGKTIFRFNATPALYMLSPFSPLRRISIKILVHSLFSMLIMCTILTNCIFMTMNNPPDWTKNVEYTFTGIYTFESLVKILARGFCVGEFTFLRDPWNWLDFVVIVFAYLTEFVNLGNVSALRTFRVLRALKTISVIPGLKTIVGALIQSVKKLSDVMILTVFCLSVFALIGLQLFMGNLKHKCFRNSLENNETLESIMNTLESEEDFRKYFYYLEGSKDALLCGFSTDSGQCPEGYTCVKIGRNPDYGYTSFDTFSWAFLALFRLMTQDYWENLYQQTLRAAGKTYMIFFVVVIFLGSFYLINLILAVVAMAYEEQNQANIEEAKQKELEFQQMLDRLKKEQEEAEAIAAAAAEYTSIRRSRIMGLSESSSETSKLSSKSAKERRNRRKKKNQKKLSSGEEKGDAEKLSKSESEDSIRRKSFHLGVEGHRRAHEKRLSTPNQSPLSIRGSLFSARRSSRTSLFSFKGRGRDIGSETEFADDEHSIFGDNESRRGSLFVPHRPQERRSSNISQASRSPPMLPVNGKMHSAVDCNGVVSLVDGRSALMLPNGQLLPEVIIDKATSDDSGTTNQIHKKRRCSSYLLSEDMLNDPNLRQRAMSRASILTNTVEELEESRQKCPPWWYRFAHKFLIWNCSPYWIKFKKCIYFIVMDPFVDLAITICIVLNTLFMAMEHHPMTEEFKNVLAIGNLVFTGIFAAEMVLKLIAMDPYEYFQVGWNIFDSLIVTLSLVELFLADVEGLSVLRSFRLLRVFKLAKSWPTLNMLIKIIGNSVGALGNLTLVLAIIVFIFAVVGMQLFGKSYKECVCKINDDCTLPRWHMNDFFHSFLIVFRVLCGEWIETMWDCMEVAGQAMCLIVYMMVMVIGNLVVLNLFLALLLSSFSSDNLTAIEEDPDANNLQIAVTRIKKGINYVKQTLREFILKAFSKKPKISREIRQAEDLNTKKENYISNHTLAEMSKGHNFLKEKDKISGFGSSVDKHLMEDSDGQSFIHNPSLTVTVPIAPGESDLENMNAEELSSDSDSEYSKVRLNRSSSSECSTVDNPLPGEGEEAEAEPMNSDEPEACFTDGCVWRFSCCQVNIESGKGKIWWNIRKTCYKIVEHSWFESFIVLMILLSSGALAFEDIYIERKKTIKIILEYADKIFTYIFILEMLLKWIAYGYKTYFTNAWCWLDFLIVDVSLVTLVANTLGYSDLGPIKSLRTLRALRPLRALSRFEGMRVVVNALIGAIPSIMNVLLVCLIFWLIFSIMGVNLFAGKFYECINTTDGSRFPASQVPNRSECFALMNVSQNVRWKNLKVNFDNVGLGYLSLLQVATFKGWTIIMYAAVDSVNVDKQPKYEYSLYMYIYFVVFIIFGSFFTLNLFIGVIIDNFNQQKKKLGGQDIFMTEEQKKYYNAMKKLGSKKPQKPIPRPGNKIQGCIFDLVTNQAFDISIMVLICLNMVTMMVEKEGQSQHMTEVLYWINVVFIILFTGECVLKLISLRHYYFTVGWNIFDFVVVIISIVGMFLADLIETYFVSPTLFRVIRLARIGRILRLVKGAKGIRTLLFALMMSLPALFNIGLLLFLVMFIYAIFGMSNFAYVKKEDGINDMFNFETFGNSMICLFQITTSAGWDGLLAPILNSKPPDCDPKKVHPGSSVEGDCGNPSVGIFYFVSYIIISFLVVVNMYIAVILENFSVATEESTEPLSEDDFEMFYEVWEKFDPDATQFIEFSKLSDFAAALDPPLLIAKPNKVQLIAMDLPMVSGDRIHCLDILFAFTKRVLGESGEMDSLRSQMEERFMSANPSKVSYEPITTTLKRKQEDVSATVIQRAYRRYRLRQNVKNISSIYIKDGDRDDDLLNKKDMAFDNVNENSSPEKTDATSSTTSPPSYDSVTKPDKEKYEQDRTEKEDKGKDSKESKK

With `C[C@H](c1ccccc1C1=C[C@@H]2CC[C@H](C1)N2)n1c(=O)oc2cc(S(=O)(=O)Nc3cccc(F)n3)c(F)cc21` [Ex7-8, 3-[(1R)-1-{2-[(1S,5R)-8-azabicyclo[3.2.1]oct-2-en-3-yl]phenyl}ethyl]-5-fluoro-N-(6-fluoropyridin-2-yl)-2-oxo-2,3-dihydro-1,3-benzoxazole-6-sulfonamide], the IC50 at human Nav1.7 (potency for the Nav 1.7 sodium ion channel (1.7=)) worked out at 0.081 µM. Moreover, the “ratio of Nav 1.5:Nav 1.7 potency” value on human Nav1.5 is listed as 681.

As for `C[C@H](c1cccc(C2=CCNCC2)c1)n1c(=O)oc2cc(S(=O)(=O)Nc3cccc(F)n3)c(F)cc21` [Ex7-10, 5-fluoro-N-(6-fluoropyridin-2-yl)-2-oxo-3-{(1R)-1-[3-(1,2,3,6-tetrahydropyridin-4-yl)phenyl]ethyl}-2,3-dihydro-1,3-benzoxazole-6-sulfonamide], the IC50 at human Nav1.7 (setting [1]) was found to be 0.127 µM. On human Nav1.5, the “ratio of Nav 1.5:Nav 1.7 potency” value came out at 331.

`C[C@H](c1cccc(C2=CCCNC2)c1)n1c(=O)oc2cc(S(=O)(=O)Nc3cccc(F)n3)c(F)cc21` [Ex7-11, 5-fluoro-N-(6-fluoropyridin-2-yl)-2-oxo-3-{(1R)-1-[3-(1,2,5,6-tetrahydropyridin-3-yl)phenyl]ethyl}-2,3-dihydro-1,3-benzoxazole-6-sulfonamide]: on human Nav1.7 (setting [1]), the IC50 came to 0.065 µM. Moreover, the “ratio of Nav 1.5:Nav 1.7 potency” value on human Nav1.5 is on record as 461.

For the molecule `C[C@H](c1ccccc1C#CCN)n1c(=O)oc2cc(S(=O)(=O)Nc3cccc(F)n3)c(F)cc21` [Ex8-1, (R)-3-(1-(2-(3-Aminoprop-1-yn-1-yl)phenyl)ethyl)-5-fluoro-N-(6-fluoropyridin-2-yl)-2-oxo-2,3-dihydrobenzo[d]oxazole-6-sulfonamide], the IC50 at human Nav1.7 (setting [1]) was 0.05 µM. The “ratio of Nav 1.5:Nav 1.7 potency” value on human Nav1.5 was determined as 546.

As to `C[C@H](c1ccccc1C#CCN1CCCC1)n1c(=O)oc2cc(S(=O)(=O)Nc3cccc(F)n3)c(F)cc21` [Ex8-2, 5-fluoro-N-(6-fluoropyridin-2-yl)-2-oxo-3-{(1R)-1-[2-(3-pyrrolidin-1-ylprop-1-yn-1-yl)phenyl]ethyl}-2,3-dihydro-1,3-benzoxazole-6-sulfonamide], at human Nav1.7 (setting [1]), the IC50 was determined as 0.434 µM. Moreover, at human Nav1.5, the “ratio of Nav 1.5:Nav 1.7 potency” value is recorded as 23.

In the case of `C[C@H](c1ccccc1C#C[C@H]1CCCC[C@H]1N)n1c(=O)oc2cc(S(=O)(=O)Nc3cccc(F)n3)c(F)cc21` [Ex8-3, 3-[(1R)-1-(2-{[(1R,2R)-2-aminocyclohexyl]ethynyl}phenyl)ethyl]-5-fluoro-N-(6-fluoropyridin-2-yl)-2-oxo-2,3-dihydro-1,3-benzoxazole-6-sulfonamide], the IC50 at human Nav1.7 (setting [1]) amounted to 0.014 µM. The “ratio of Nav 1.5:Nav 1.7 potency” value on human Nav1.5 is on record as 2000.

Turning to `C[C@H](c1ccccc1C#CC(N)CO)n1c(=O)oc2cc(S(=O)(=O)Nc3cccc(F)n3)c(F)cc21` (stereo partly drawn) [Ex8-4, 3-{(1R)-1-[2-(3-amino-4-hydroxybut-1-yn-1-yl)phenyl]ethyl}-5-fluoro-N-(6-fluoropyridin-2-yl)-2-oxo-2,3-dihydro-1,3-benzoxazole-6-sulfonamide], at human Nav1.7 (setting [1]), the IC50 is 0.009 µM. In addition, on human Nav1.5, the “ratio of Nav 1.5:Nav 1.7 potency” value is on record as 822.

`C[C@H](c1ccccc1C#CC1(N)CCCCC1)n1c(=O)oc2cc(S(=O)(=O)Nc3cccc(F)n3)c(F)cc21` [Ex8-6, 3-[(1R)-1-{2-[(1-aminocyclohexyl)ethynyl]phenyl}ethyl]-5-fluoro-N-(6-fluoropyridin-2-yl)-2-oxo-2,3-dihydro-1,3-benzoxazole-6-sulfonamide]: the IC50 on human Nav1.7 (setting [1]) was 0.049 µM. Moreover, on human Nav1.5, the “ratio of Nav 1.5:Nav 1.7 potency” value is 95.

With `C[C@H](c1ccccc1C#CCC(C)(C)N)n1c(=O)oc2cc(S(=O)(=O)Nc3cccc(F)n3)c(F)cc21` [Ex8-7, 3-{(1R)-1-[2-(4-amino-4-methylpent-1-yn-1-yl)phenyl]ethyl}-5-fluoro-N-(6-fluoropyridin-2-yl)-2-oxo-2,3-dihydro-1,3-benzoxazole-6-sulfonamide], at human Nav1.7 (setting [1]), the IC50 worked out at 0.108 µM. On human Nav1.5, the “ratio of Nav 1.5:Nav 1.7 potency” value is reported as over 131.

With `C[C@H](c1ccccc1C#CCN1CCC(O)C1)n1c(=O)oc2cc(S(=O)(=O)Nc3cccc(F)n3)c(F)cc21` (stereo partly drawn) [Ex8-8, 5-fluoro-N-(6-fluoropyridin-2-yl)-3-[(1R)-1-{2-[3-(3-hydroxypyrrolidin-1-yl)prop-1-yn-1-yl]phenyl}ethyl]-2-oxo-2,3-dihydro-1,3-benzoxazole-6-sulfonamide], on human Nav1.7 (setting [1]), the IC50 came to 0.299 µM. The “ratio of Nav 1.5:Nav 1.7 potency” value at human Nav1.5 is given as 75.

Take `C[C@H](c1ccccc1C#CCN(C)C)n1c(=O)oc2cc(S(=O)(=O)Nc3cccc(F)n3)c(F)cc21` [Ex8-9, 3-[(1R)-1-{2-[3-(dimethylamino)prop-1-yn-1-yl]phenyl}ethyl]-5-fluoro-N-(6-fluoropyridin-2-yl)-2-oxo-2,3-dihydro-1,3-benzoxazole-6-sulfonamide]: the IC50 at human Nav1.7 (setting [1]) came out at 0.273 µM. On human Nav1.5, the “ratio of Nav 1.5:Nav 1.7 potency” value turned out to be 99.

As to `C[C@H](c1ccccc1C#CCN1CCC1)n1c(=O)oc2cc(S(=O)(=O)Nc3cccc(F)n3)c(F)cc21` [Ex8-10, 3-{(1R)-1-[2-(3-azetidin-1-ylprop-1-yn-1-yl)phenyl]ethyl}-5-fluoro-N-(6-fluoropyridin-2-yl)-2-oxo-2,3-dihydro-1,3-benzoxazole-6-sulfonamide], the IC50 at human Nav1.7 (setting [1]) turned out to be 0.236 µM. Further, at human Nav1.5, the “ratio of Nav 1.5:Nav 1.7 potency” value was found to be 127.

On to `C[C@H](c1ccccc1CN)n1c(=O)oc2cc(S(=O)(=O)Nc3cccc(F)n3)c(F)cc21` [Ex9-1, (R)-3-(1-(2-(aminomethyl)phenyl)ethyl)-5-fluoro-N-(6-fluoropyridin-2-yl)-2-oxo-2,3-dihydrobenzo[d]oxazole-6-sulfonamide], for which the IC50 at human Nav1.7 (setting [1]) was determined as 0.024 µM. The “ratio of Nav 1.5:Nav 1.7 potency” value at human Nav1.5 came out at 1525.

As to `C[C@H](c1ccccc1CN(C)C)n1c(=O)oc2cc(S(=O)(=O)Nc3cccc(F)n3)c(F)cc21` [Ex9-2, 3-[(1R)-1-{2-[(dimethylamino)methyl]phenyl}ethyl]-5-fluoro-N-(6-fluoropyridin-2-yl)-2-oxo-2,3-dihydro-1,3-benzoxazole-6-sulfonamide], the IC50 on human Nav1.7 (setting [1]) is 0.124 µM. Also, the “ratio of Nav 1.5:Nav 1.7 potency” value on human Nav1.5 is 84.

Consider `C[C@H](c1ccccc1CN1CCCCC1)n1c(=O)oc2cc(S(=O)(=O)Nc3cccc(F)n3)c(F)cc21` [Ex9-3, 5-fluoro-N-(6-fluoropyridin-2-yl)-2-oxo-3-{(1R)-1-[2-(piperidin-1-ylmethyl)phenyl]ethyl}-2,3-dihydro-1,3-benzoxazole-6-sulfonamide], for which the IC50 at human Nav1.7 (setting [1]) was 0.3 µM. The “ratio of Nav 1.5:Nav 1.7 potency” value at human Nav1.5 is on record as 68.

On to `C[C@H](c1ccccc1C1CNC1)n1c(=O)oc2cc(S(=O)(=O)Nc3cccc(F)n3)c(F)cc21` [Ex10-3, (R)-3-(1-(2-(Azetidin-3-yl)phenyl)ethyl)-5-fluoro-N-(6-fluoropyridin-2-yl)-2-oxo-2,3-dihydrobenzo[d]oxazole-6-sulfonamide], for which the IC50 at human Nav1.7 (setting [1]) worked out at 0.039 µM. Also, the “ratio of Nav 1.5:Nav 1.7 potency” value at human Nav1.5 worked out at 1306.

`C[C@H](c1ccccc1C1CN(S(C)(=O)=O)C1)n1c(=O)oc2cc(S(=O)(=O)Nc3cccc(F)n3)c(F)cc21` [Ex11-1]: the IC50 at human Nav1.7 (setting [1]) was 0.213 µM. At human Nav1.5, the “ratio of Nav 1.5:Nav 1.7 potency” value came to 34.

Take `C[C@H](c1ccccc1C1(O)CNC1)n1c(=O)oc2cc(S(=O)(=O)Nc3cccc(F)n3)c(F)cc21` [Ex12-4, (R)-5-Fluoro-N-(6-fluoropyridin-2-yl)-3-(1-(2-(3-hydroxyazetidin-3-yl)phenyl)ethyl)-2-oxo-2,3-dihydrobenzo[d]oxazole-6-sulfonamide]: at human Nav1.7 (setting [1]), the IC50 was determined as 0.4 µM. Also, the “ratio of Nav 1.5:Nav 1.7 potency” value at human Nav1.5 is 75.

In the case of `C[C@H](c1ccccc1C1(F)CNC1)n1c(=O)oc2cc(S(=O)(=O)Nc3cccc(F)n3)c(F)cc21` [Ex12-6, (R)-5-Fluoro-3-(1-(2-(3-fluoroazetidin-3-yl)phenyl)ethyl)-N-(6-fluoropyridin-2-yl)-2-oxo-2,3-dihydrobenzo[d]oxazole-6-sulfonamide], the IC50 at human Nav1.7 (setting [1]) stood at 0.046 µM. Besides, the “ratio of Nav 1.5:Nav 1.7 potency” value at human Nav1.5 is listed as 648.

For the molecule `Cc1cccc([C@@H](C)n2c(=O)oc3cc(S(=O)(=O)Nc4cccc(F)n4)c(F)cc32)c1Br` [Ex14-4, 3-[(1R)-1-(2-Bromo-3-methylphenyl)ethyl]-5-fluoro-N-(6-fluoropyridin-2-yl)-2-oxo-2,3-dihydro-1,3-benzoxazole-6-sulfonamide], the IC50 on human Nav1.7 (setting [1]) worked out at 0.596 µM. The “ratio of Nav 1.5:Nav 1.7 potency” value at human Nav1.5 amounted to 27.

Turning to `C[C@H](c1cccc2c1CNCC2)n1c(=O)oc2cc(S(=O)(=O)Nc3ccc(F)cn3)c(F)cc21.Cl` [Ex15-5, (R)-5-Fluoro-N-(5-fluoropyridin-2-yl)-2-oxo-3-(1-(1,2,3,4-tetrahydroisoquinolin-8-yl)ethyl)-2,3-dihydrobenzo[d]oxazole-6-sulfonamide hydrochloride], the IC50 at human Nav1.7 (setting [1]) amounted to 0.535 µM. Further, the “ratio of Nav 1.5:Nav 1.7 potency” value on human Nav1.5 was determined as 108.

Regarding `C[C@H](c1ccccc1C1CNC1)n1c(=O)oc2cc(S(=O)(=O)Nc3ccc(F)cn3)c(F)cc21` [Ex15-6, 3-[(1R)-1-(2-azetidin-3-ylphenyl)ethyl]-5-fluoro-N-(5-fluoropyridin-2-yl)-2-oxo-2,3-dihydro-1,3-benzoxazole-6-sulfonamide], on human Nav1.7 (setting [1]), the IC50 is 0.145 µM. Moreover, the “ratio of Nav 1.5:Nav 1.7 potency” value on human Nav1.5 is reported as 207.

The values are drawn from patent US9624208B2, “Benzoxazolinone compounds with selective activity in voltage-gated sodium channels” (Merck Sharp & Dohme Corp., priority 2012, dated 2017).
